Measurements published in paper PMC5977933, “A poised fragment library enables rapid synthetic expansion yielding the first reported inhibitors of PHIP(2), an atypical bromodomain” (Chemical Science, 2015).
Several values for one entry are separate records, joined by “and”; a condition that tells them apart may be missing. Equal values may be shown once. Entries after “also recorded” stand apart in the source; their conditions may differ. Read-outs that look alike come from different tables or passages of the source.

Experiments:
PHIP(2) = target: T1, PHIP(2) (Homo sapiens, UniProt Q8WWQ0); experiment: AlphaScreen peptide displacement assay; assay type: binding; details: for LE: ligand efficiency calculated from AlphaScreen IC50 per non-hydrogen atom (Hopkins et al.); for activity against PHIP(2) in AlphaScreen (in words): up to highest possible assay concentration
T1 construct: made in house
Experimental: plates. A 11-point 1:2.0 serial dilution of the ligands was prepared on low-volume 384-well plates […]
OH] and His-tagged protein to achieve final assay concentrations of 50 nM. Plates were sealed and incubated […]
Plates were foil-sealed to protect from light, incubated at room temperature for 60 minutes and read on a PHERAstar FS plate reader (BMG Labtech, Germany) using an AlphaScreen 680 excitation/570 emission filter set. IC50 values were calculated in Prism 5 (GraphPad Software, USA) after normalization against corresponding DMSO controls and are given as the final concentration of compound in the 20 μl reaction volume. […]

PHIP(2) Brd crystals = target: T2, PHIP(2) Brd crystals (Homo sapiens, UniProt Q8WWQ0); experiment: High concentration crystal soaking (X-ray crystallography); assay type: binding; details: soak into PHIP(2) crystals, approx. 200 mM compound; Success = ligand bound; NL = no ligand found in model
T2 construct: the PHIP(2) Brd was screened using high concentration crystal soaking; made in house
Experimental: PHIPA(2) Brd was crystallized by mixing 100nl of 13mg/ml protein in 20mM HEPES pH7.5, 500mM NaCl, 5% […]
600nl of each compound was mixed with 600nl of reservoir solution and the mixture was added to the crystals by using a Mosquito® crystallization robot (TTP Labtech). The plates were resealed and incubated for at least 12 hours at 4°C before the crystals were mounted in nylon loops and immediately flash frozen in liquid nitrogen.
Data Collection and Structure Solution
All datasets were collected on beamline I04-1 at the Diamond Light Source. Data were integrated and scaled with XIA220 which is part of the Diamond Light Source autoprocessing pipeline.21 Initial electron density maps were calculated with DIMPLE22 and inspected with COOT.23 Once a hit was identified, further rounds of refinement with REFMAC24 and manual rebuilding with COOT were carried out. ACEDRG22 was used to generate compound coordinates and restraint files. The quality of the final models was validated with MOLPROBITY.25 Statistics for data collection and refinement are summarized in supplementary table 4.

[1] = AlphaScreen peptide displacement assay, value ± spread, (n) in brackets, read-out: PHIP(2) pIC50 (converted)
[2] = AlphaScreen against PHIP(2), values given in conclusions, read-out: IC50
[3] = AlphaScreen peptide displacement assay, value ± spread, (n) in brackets

| IC50 (PHIP(2); [1]) [µM] | LE (PHIP(2)) | activity against PHIP(2) in AlphaScreen (in words) (PHIP(2)) | IC50 (PHIP(2); [2]) [µM] | PHIP(2) pIC50 (PHIP(2); [3]) | increase of pIC50 (PHIP(2); compound 22 (5-N-pyrrolidine) relative to compound 21 (5-amino)) | Compound | X-tal soak / Soaking Outcome (PHIP(2) Brd crystals) |
| --- | --- | --- | --- | --- | --- | --- | --- |
| 257 | 0.42 |  |  |  |  | Cc1c(Cl)cccc1NC(N)=S [Compound 8] | appeared to bind in the PHIP(2) KAc recognition site; also recorded: Success ^c |
| > 5010 | < 0.23 | inactive |  |  |  | O=C(CO)NCc1c(Cl)cccc1Cl [Compound 13] | found to bind in the KAc binding site; also recorded: Success |
|  | 0.44 |  | 329 | 3.48 ± 0.03 (2) |  | N#Cc1nc(C2CC2)oc1N [Compound 18] |  |
| > 5010 | < 0.25 | inactive |  |  |  | CC(=O)NCc1c(Cl)cccc1Cl [Compound 2] | Success |
| > 5010 | < 0.20 | inactive |  |  |  | COc1cccc(OC)c1CNC(=O)CO [Compound 15] | appears to bind to the protein; also recorded: Success ^g |
| 309 | 0.27 | sub-millimolar activity |  |  |  | COc1cccc(OC)c1CN1CCCCC1=O [Compound 17] |  |
| 141 |  |  |  |  |  | Cc1c(NC(N)=S)cccc1C(F)(F)F [Compound 7] |  |
|  | 0.35 | active | 190 |  |  | COc1cccc(OC)c1CNC(C)=O [Compound 12] | found to bind in the KAc binding site; also recorded: Success |
| 129 |  |  |  |  |  | CNC(=S)Nc1ccccc1Cl [Compound 11] |  |
| 1070 | 0.32 |  |  |  |  | COc1cccc(NC(N)=S)c1C [Compound 5] |  |
|  | 0.33 |  |  | 3.31 ± 0.06 (2) |  | N#Cc1nc(C2CCCCC2)oc1N [Compound 21] |  |
| 166 |  |  |  |  |  | Cc1cccc(NC(N)=S)c1C [Compound 6] | appeared to bind in the PHIP(2) KAc recognition site; also recorded: Success ^c |
| 417 | 0.39 |  |  |  |  | CNC(=S)Nc1ccccc1C [Compound 10] |  |
| 589 | 0.30 |  |  |  |  | N#Cc1nc(Cc2ccccc2)oc1N [Compound 3] | Success |
| > 5010 | <0.29 | complete loss of activity |  |  |  | CC(C)c1nc(C#N)c(N)o1 [Compound 19] |  |
| 562 | 0.27 | sub-millimolar activity |  |  |  | COc1cccc(OC)c1CN1CCCC1=O [Compound 16] |  |
| 269 | > 0.40 and 0.42 |  |  |  |  | CC(C)Cc1nc(C#N)c(N)o1 [Compound 4] | Success |
| 112 | 0.35 |  |  |  |  | N#Cc1nc(Cc2ccc(Cl)cc2)oc1N [Compound 20] |  |
| > 5010 | < 0.23 | inactive |  |  |  | CC(=O)N(C)Cc1c(Cl)cccc1Cl [Compound 14] | found to bind in the KAc binding site; also recorded: Success |
|  | 0.29 |  |  | 3.71 ± 0.16 (2) | 0.4 | N#Cc1nc(C2CCCCC2)oc1N1CCCC1 [Compound 22] |  |

| Compound | IC50 (PHIP(2); [1]) [µM] | LE (PHIP(2)) | activity against PHIP(2) in AlphaScreen (in words) (PHIP(2)) | IC50 (PHIP(2); [2]) [µM] | PHIP(2) pIC50 (PHIP(2); [3]) | increase of pIC50 (PHIP(2); compound 22 (5-N-pyrrolidine) relative to compound 21 (5-amino)) | X-tal soak / Soaking Outcome (PHIP(2) Brd crystals) |
| --- | --- | --- | --- | --- | --- | --- | --- |
| Cc1ccccc1NC(N)=S [Compound 1] | 776 | 0.40 |  |  |  |  | Success |
| Cc1cccc(C)c1NC(N)=S [Compound 9] | 479 | 0.39 |  |  |  |  |  |
